Laboratory results published in article PMC8776995 (Frontiers in Chemistry, 2022).
Several values for one entry are separate records, joined by “and”; a condition that tells them apart may be missing. Equal values may be shown once. Read-outs that look alike come from different tables or passages of the source.

How the values were obtained:
[1] = tested on: H460 cells; assay: Flow cytometry detection for cell cycle, H460; assay type: cell-based, human; settings: for G0/G1 / G2/M / S: single experiments (20200711, 20200810, 20200812); for percentage of cells in the G0/G1 phase: H460, various concentrations, 12 h
Description: To investigate the effects of compounds e4 and e12 on various phases of the cell cycle, PC-9 cells were treated with compound e4 or e12 of various concentrations for 24 h, and H460 cells were treated with compound e4 or e12 of various concentrations for 12 h.
PC-9 or H460 (2 × 10^5–3 × 10^5/well) cells were seeded in six-well plates for 24 h, and then treated with 0.1% DMSO (as control), various concentrations of either compound e4 or e12 for 24 h (PC-9) or 12 h (H460), respectively. The treated cells were harvested, washed with PBS, and then stained using the cell-cycle staining kit according to the manufacturer’s manual. The distribution of cell-cycle phases with different DNA contents was determined by flow cytometry (BD LSRFortessa™ Flow Cytometer) and analyzed using ModFit LT software.

[2] = tested on: H1975 cells; assay: CCK-8 antiproliferation assay, H1975; settings: for Inhibitory efficacy: H1975 cells
[3] = Body mass of PC-9 tumor-bearing NSG mice after treatment; settings: for Change in body weight: individual animals
Description: PC-9 xenografts were established by subcutaneous transplantation of cancer cells into the flanks of NSG mice (male, 4–6-week old). […] Tumor volumes were measured using calipers and calculated with the formula: V = length × width^2/2. The mouse body mass was recorded as well. 19 days after inoculation, the mice were sacrificed and the tumors were harvested and weighed.

[4] = tested on: PC-9 xenograft; assay: In vivo antitumor activity, PC-9 xenograft in NSG mice; design: species or system mouse
Description: The mouse body mass was recorded as well.

[5] = 2uM, given as fraction, Repeat 1-3
[6] = 4uM, given as fraction, Repeat 1-3
[7] = 8uM, given as fraction, Repeat 1-3
[8] = 16uM, given as fraction, Repeat 1-3
[9] = Homo sapiens, NCI-H1975, read-out: Inhibitory efficacy, H1975 cells, 2uM, given as fraction, Repeat 1-3
[10] = Homo sapiens, NCI-H1975, read-out: Inhibitory efficacy, H1975 cells, 4uM, given as fraction, Repeat 1-3
[11] = Homo sapiens, NCI-H1975, read-out: Inhibitory efficacy, H1975 cells, 8uM, given as fraction, Repeat 1-3
[12] = Homo sapiens, NCI-H1975, read-out: Inhibitory efficacy, H1975 cells, 16uM, given as fraction, Repeat 1-3

COCCOc1cc2ncnc(Nc3cccc(-c4cn(-c5ccc(C)cc5)nn4)c3)c2cc1OCCOC [e12, [6,7-Bis-(2-methoxy-ethoxy)-quinazolin-4-yl]-[3-(1-p-tolyl-1H-[1,2,3]triazol-4-yl)-phenyl]-amine]
melting point: 95 to 98 °C | G0/G1 ([1]; H460, 4uM): 46.77% and 59.95% | G2/M ([1]; H460, 4uM): 19.08% and 18.32% and 13.33% | S ([1]; H460, 4uM): 34.15% and 35.36% and 26.72% | G0/G1 ([1]; H460, 8uM): 49.59% and 63.38% | G2/M ([1]; H460, 8uM): 16.88% and 18.32% and 11.47% | S ([1]; H460, 8uM): 33.54% and 35.36% and 25.15% | G0/G1 ([1]; H460, 12uM): 47.32% and 46.51% and 62.09% | S ([1]; H460, 12uM): 32.63% and 19.41% and 25.2% | percentage of cells in the G0/G1 phase [1]: induced higher percentages | Inhibitory efficacy ([2]; 1uM, given as fraction, Repeat 1-3): 0.1624 and 0.1374 | Inhibitory efficacy [2, 5]: 0.2034 and 0.2177 | Inhibitory efficacy [2, 6]: 0.2052 and 0.2481 | Inhibitory efficacy [2, 7]: 0.4158 and 0.4836 | Inhibitory efficacy [2, 8]: 0.8709 and 0.8763 | IC50 ([2]; Homo sapiens, NCI-H1975, 48 h, read-out: IC50 (μM) H1975, CCK-8, 48 h, average ± SD of three independent experiments): < 10 µM | inhibition at 1 µM ([2]; Homo sapiens, NCI-H1975, read-out: Inhibitory efficacy, H1975 cells, 1uM, given as fraction, Repeat 1-3): 18.4% | inhibition at 2 µM [2, 9]: 28.9% | inhibition at 4 µM [2, 10]: 23.2% | inhibition at 8 µM [2, 11]: 40.7% | inhibition at 16 µM [2, 12]: 87.6% | IC50 ([2]; read-out: IC50 (μM) H1975, CCK-8, 48 h, average ± SD of three independent experiments): 7.25 ± 0.45 µM

COCCOc1cc2ncnc(Nc3cccc(-c4cn(Cc5cc(Br)cc(Br)c5)nn4)c3)c2cc1OCCOC [e4, [6,7-Bis-(2-methoxy-ethoxy)-quinazolin-4-yl]-{3-[1-(3,5-dibromo-benzyl)-1H-[1,2,3]triazol-4-yl]-phenyl}-amine]
Body weigh ([3]; Day13, individual animals): 27 g and 25.6 g and 24.1 g and 27.3 g and 28.8 g | Body weigh ([3]; Day15, individual animals): 25.7 g and 26.2 g and 25.9 g and 27.3 g and 29 g | Change in body weight ([3]; Day15 vs previous weighing): -4.815% and 2.344% and 7.469% and 0% and 0.6944% | Body weigh ([3]; Day17, individual animals): 26 g and 23.9 g and 26.1 g and 27.3 g and 29.1 g | Change in body weight ([3]; Day17 vs previous weighing): 1.167% and -8.779% and 0.7722% and 0% and 0.3448% | Body weigh ([3]; Day19, individual animals): 25.9 g and 26 g and 26.2 g and 27.1 g and 29.1 g | Change in body weight ([3]; Day19 vs previous weighing): -0.3846% and 8.787% and 0.3831% and -0.7326% and 0% | G0/G1 ([1]; H460, 4uM): 42.32% and 41.29% and 53.43% | G2/M ([1]; H460, 4uM): 16.95% and 17.5% and 12.27% | S ([1]; H460, 4uM): 40.73% and 41.21% and 34.3% | G0/G1 ([1]; H460, 8uM): 48.11% and 44.75% and 59.66% | G2/M ([1]; H460, 8uM): 16.79% and 18.81% and 11.77% | S ([1]; H460, 8uM): 35.11% and 36.45% and 28.56% | G0/G1 ([1]; H460, 12uM): 48.29% and 43.3% and 54.65% | G2/M ([1]; H460, 12uM): 17.85% and 18.86% and 13.72% | S ([1]; H460, 12uM): 33.86% and 38.02% and 31.63% | percentage of cells in the G0/G1 phase [1]: induced higher percentages | Inhibitory efficacy [2, 5]: 0.363 and 0.4168 | Inhibitory efficacy [2, 6]: 0.3676 and 0.4565 | Inhibitory efficacy [2, 7]: 0.9443 | Inhibitory efficacy [2, 8]: 0.9548 and 0.9653 | inhibition at 2 µM [2, 9]: 30.2% | inhibition at 4 µM [2, 10]: 39.3% | inhibition at 8 µM [2, 11]: 92.2% | inhibition at 16 µM [2, 12]: 96.1% | tumor volume mean ([4]; Day13, group mean): 63.4029 mm3 | tumor length ([4]; Day13, individual animals): 5.08 mm and 6.5 mm and 4.8 mm and 6.3 mm and 6.04 mm and 5.8 mm and 7.4 mm and 6.1 mm | tumor volume ([4]; Day13, individual animals): 59.9938 mm3 and 60.0925 mm3 and 44.376 mm3 and 55.566 mm3 and 68.426 mm3 and 38.5875 mm3 and 71.3446 mm3 and 78.292 mm3 and 93.9476 mm3 | tumor width ([4]; Day13, individual animals): 4.86 mm and 4.3 mm and 4.2 mm and 4.76 mm and 3.5 mm and 4.96 mm and 4.6 mm and 5.55 mm | tumor volume mean ([4]; Day15, group mean): 44.2866 mm3 | tumor length ([4]; Day15, individual animals): 3.97 mm and 5.56 mm and 5.73 mm and 4.91 mm and 4.11 mm and 5.48 mm and 4.95 mm and 6.93 mm and 5.72 mm | tumor volume ([4]; Day15, individual animals): 23.9012 mm3 and 57.8062 mm3 and 55.2146 mm3 and 35.078 mm3 and 33.0446 mm3 and 32.9921 mm3 and 21.979 mm3 and 91.1881 mm3 and 47.3756 mm3 | tumor width ([4]; Day15, individual animals): 3.47 mm and 4.56 mm and 4.39 mm and 3.78 mm and 4.01 mm and 2.98 mm and 5.13 mm and 4.07 mm | tumor volume mean ([4]; Day17, group mean): 35.7355 mm3 | tumor length ([4]; Day17, individual animals): 3.7 mm and 7.6 mm and 4.76 mm and 5.8 mm and 4.94 mm and 4.9 mm and 5.1 mm and 4.6 mm | tumor volume ([4]; Day17, individual animals): 17.7785 mm3 and 54.872 mm3 and 38.4618 mm3 and 25.4086 mm3 and 28.0515 mm3 and 47.432 mm3 and 38.7855 mm3 and 30.2575 mm3 and 40.572 mm3 | tumor width ([4]; Day17, individual animals): 3.1 mm and 3.8 mm and 4.02 mm and 2.96 mm and 3.37 mm and 4.4 mm and 3.9 mm and 3.5 mm and 4.2 mm | tumor volume mean ([4]; Day19, group mean): 22.669 mm3 | Tumor weight ([4]; Day19, individual animals): 0.07 g and 0.02 g and 0.04 g and 0.03 g | tumor length ([4]; Day19, individual animals): 4.55 mm and 5.74 mm and 3.59 mm and 2.83 mm and 2.52 mm and 3 mm and 4.51 mm and 5.54 mm and 4.24 mm | tumor volume ([4]; Day19, individual animals): 7.871 mm3 and 60.7292 mm3 and 20.5068 mm3 and 2.813 mm3 and 5.663 mm3 and 9.6774 mm3 and 39.0241 mm3 and 23.1353 mm3 and 34.6018 mm3 | tumor width ([4]; Day19, individual animals): 1.86 mm and 4.6 mm and 3.38 mm and 1.41 mm and 2.12 mm and 2.54 mm and 4.16 mm and 2.89 mm and 4.04 mm
